According to US4393225A, “AI-77 Compounds and pharmaceutically acceptable salts thereof” (Asahi Kasei Kogyo Kabushiki Kaisha, priority 1979, dated 1983):
Where two headings read alike, the source gives them in different places.

Test system: ulcer
Assay: Anti-ulcer test (restraint and water immersion ulcer in rats, i.p.)
Format: in vivo, Male Wistar rats
Conditions: Rattus norvegicus, ip, read-out: % Inhibition of Ulcer
Experimental: The anti-ulcer and anti-edema activity of the compounds was evaluated in efficacy tests described below.
Male Wistar rats weighing about 150 g on average were not fed for 24 hours before the test. Then a solution or suspension of a predetermined concentration of the test compound in physiological saline was administered to them intraperitoneally. One hour after the administration,each rat was restrained in a net cage and submerged in a water both (21° C.) from the tail to xiphistrenun for 6 hours. Test animals were then killed (by dislocation of the cervical vertebrae), the stomach was removed and incised along the curvatura ventriculi major, and the inside wall of the stomach was pathologically examined under microscopic observation. Rats in which the occurrence of an ulceration was substantially not observed were rated O, while others were rated 0.5, 1, 2 or 3, depending on the severity of the ulcer development. The percent inhibition of ulcer was calculated by the following formula: [formula]

SMILES | inhibition in vivo at 50 mg/kg (50 mg/kg i.p.) [%] | inhibition in vivo at 50 mg/kg [%]
CC(C)CC(NC(=O)C(O)C1OC(=O)CC1NC(=O)Cn1cnnn1)C1Cc2cccc(O)c2C(=O)O1 (stereo not drawn) [IIIa-1-75] | 66 | –
CCCCCc1ccc(C(=O)NC2CC(=O)OC2C(O)C(=O)NC(CC(C)C)C2Cc3cccc(O)c3C(=O)O2)cc1 (stereo not drawn) [IIIa-1-76] | 66 | –
CCCC=Cc1ccc(C(=O)NC2CC(=O)OC2C(O)C(=O)NC(CC(C)C)C2Cc3cccc(O)c3C(=O)O2)cc1 (stereo not drawn) [IIIa-1-77] | 66 | –
CC(C)CC(NC(=O)C(O)C1OC(=O)CC1NC(=O)CCCCCCCCCO)C1Cc2cccc(O)c2C(=O)O1 (stereo not drawn) [IIIa-1-78] | 66 | –
CC(C)CC(NC(=O)C(O)C1OC(=O)CC1NC(=O)CC1CC1)C1Cc2cccc(O)c2C(=O)O1 (stereo not drawn) [IIIa-1-79] | 66 | –
CC(Br)=C(C)C(=O)NC1CC(=O)OC1C(O)C(=O)NC(CC(C)C)C1Cc2cccc(O)c2C(=O)O1 (stereo not drawn) [IIIa-1-80] | 66 | –
CC(C)=CC(=O)NC1CC(=O)OC1C(O)C(=O)NC(CC(C)C)C1Cc2cccc(O)c2C(=O)O1 (stereo not drawn) [IIIa-1-81] | 66 | –
CSC(C)(C)CC(=O)NC1CC(=O)OC1C(O)C(=O)NC(CC(C)C)C1Cc2cccc(O)c2C(=O)O1 (stereo not drawn) [IIIa-1-82] | – | 66
COC(C)(C)CC(=O)NC1CC(=O)OC1C(O)C(=O)NC(CC(C)C)C1Cc2cccc(O)c2C(=O)O1 (stereo not drawn) [IIIa-1-83] | 66 | –
CC(C)CC(NC(=O)C(OC(=O)C(Cl)(Cl)Cl)C1OC(=O)CC1NC(=O)C(Cl)(Cl)Cl)C1Cc2cccc(O)c2C(=O)O1 (stereo not drawn) [IIIa-2-1] | 44 | –
CC(=O)NC1CC(=O)OC1C(OC(C)=O)C(=O)NC(CC(C)C)C1Cc2cccc(O)c2C(=O)O1 (stereo not drawn) [IIIa-2-2] | 44 | –
CC(=O)OC(C(=O)NC(CC(C)C)C1Cc2cccc(O)c2C(=O)O1)C1OC(=O)CC1NC(=O)CC(C)C (stereo not drawn) [IIIa-2-3] | 44 | –
CCCCCCCCCCCCCCCCCC(=O)NC1CC(=O)OC1C(OC(C)=O)C(=O)NC(CC(C)C)C1Cc2cccc(O)c2C(=O)O1 (stereo not drawn) [IIIa-2-4] | 33 | –
CCCCCCCCC=CCCCCCCCC(=O)NC1CC(=O)OC1C(OC(C)=O)C(=O)NC(CC(C)C)C1Cc2cccc(O)c2C(=O)O1 (stereo not drawn) [IIIa-2-5] | 33 | –
CC(=O)OC(C(=O)NC(CC(C)C)C1Cc2cccc(O)c2C(=O)O1)C1OC(=O)CC1NC(=O)C1CCCO1 (stereo not drawn) [IIIa-2-6] | 44 | –
CC(=O)OC(C(=O)NC(CC(C)C)C1Cc2cccc(O)c2C(=O)O1)C1OC(=O)CC1NC(=O)c1ccc(C)cc1 (stereo not drawn) [IIIa-2-8] | 44 | –
CC(=O)OC(C(=O)NC(CC(C)C)C1Cc2cccc(O)c2C(=O)O1)C1OC(=O)CC1NC(=O)c1ccc(OCCC(C)C)cc1 (stereo not drawn) [IIIa-2-9] | 33 | –
CCC(=O)OC(C(=O)NC(CC(C)C)C1Cc2cccc(O)c2C(=O)O1)C1OC(=O)CC1NC(C)=O (stereo not drawn) [IIIa-2-10] | 44 | –
CCCC(=O)NC1CC(=O)OC1C(OC(=O)CCC)C(=O)NC(CC(C)C)C1Cc2cccc(O)c2C(=O)O1 (stereo not drawn) [IIIa-2-11] | 33 | –
CCC(=O)OC(C(=O)NC(CC(C)C)C1Cc2cccc(O)c2C(=O)O1)C1OC(=O)CC1NC(=O)C(Cl)(Cl)Cl (stereo not drawn) [IIIa-2-12] | 44 | –

SMILES | inhibition in vivo at 50 mg/kg (50 mg/kg i.p.) [%] | inhibition in vivo at 50 mg/kg [%]
CC(=O)NC1CC(=O)OC1C(OC(C)=O)C(=O)NC(CC(C)C)C1Cc2cccc(OC(C)=O)c2C(=O)O1 (stereo not drawn) [IIIa-3-1] | 33 | –
CCC(=O)OC(C(=O)NC(CC(C)C)C1Cc2cccc(OC(=O)C(C)C)c2C(=O)O1)C1OC(=O)CC1NC(C)=O (stereo not drawn) [IIIa-3-2] | 33 | –
CC(=O)Oc1cccc2c1C(=O)OC(C(CC(C)C)NC(=O)C(OC(C)=O)C1OC(=O)CC1NC(=O)CC(C)C)C2 (stereo not drawn) [IIIa-3-3] | 33 | –
CCCCCCCCCCCCCCCCCC(=O)NC1CC(=O)OC1C(OC(C)=O)C(=O)NC(CC(C)C)C1Cc2cccc(OC(C)=O)c2C(=O)O1 (stereo not drawn) [IIIa-3-4] | 22 | –
CCCCCCCCC=CCCCCCCCC(=O)NC1CC(=O)OC1C(OC(C)=O)C(=O)NC(CC(C)C)C1Cc2cccc(OC(C)=O)c2C(=O)O1 (stereo not drawn) [IIIa-3-5] | 22 | –
CC(=O)Oc1cccc2c1C(=O)OC(C(CC(C)C)NC(=O)C(OC(C)=O)C1OC(=O)CC1NC(=O)C1CCCO1)C2 (stereo not drawn) [IIIa-3-6] | 33 | –
COC(C)CC(=O)NC1CC(=O)OC1C(OC(C)=O)C(=O)NC(CC(C)C)C1Cc2cccc(OC(C)=O)c2C(=O)O1 (stereo not drawn) [IIIa-3-7] | 33 | –
CC(=O)Oc1cccc2c1C(=O)OC(C(CC(C)C)NC(=O)C(OC(C)=O)C1OC(=O)CC1NC(=O)c1ccc(C)cc1)C2 (stereo not drawn) [IIIa-3-8] | 33 | –
CC(=O)Oc1cccc2c1C(=O)OC(C(CC(C)C)NC(=O)C(OC(C)=O)C1OC(=O)CC1NC(=O)c1ccc(OCCC(C)C)cc1)C2 (stereo not drawn) [IIIa-3-9] | 22 | –
CC(=O)Oc1cccc2c1C(=O)OC(C(CC(C)C)NC(=O)C(OC(=O)C(Cl)(Cl)Cl)C1OC(=O)CC1NC(=O)C(Cl)(Cl)Cl)C2 (stereo not drawn) [IIIa-3-10] | 33 | –
CC(=O)Oc1cccc2c1C(=O)OC(C(CC(C)C)NC(=O)C(O)C1OC(=O)CC1NC(=O)C(C)C)C2 (stereo not drawn) [IIIa-4-2] | 44 | –
CCCCCCCCCCCCCCCCCC(=O)NC1CC(=O)OC1C(O)C(=O)NC(CC(C)C)C1Cc2cccc(OC(C)=O)c2C(=O)O1 (stereo not drawn) [IIIa-4-3] | 33 | –
CCCCCCCCC=CCCCCCCCC(=O)NC1CC(=O)OC1C(O)C(=O)NC(CC(C)C)C1Cc2cccc(OC(C)=O)c2C(=O)O1 (stereo not drawn) [IIIa-4-4] | 33 | –
CC(=O)Oc1cccc2c1C(=O)OC(C(CC(C)C)NC(=O)C(O)C1OC(=O)CC1NC(=O)C1CCCO1)C2 (stereo not drawn) [IIIa-4-5] | 33 | –
COC(C)CC(=O)NC1CC(=O)OC1C(O)C(=O)NC(CC(C)C)C1Cc2cccc(OC(C)=O)c2C(=O)O1 (stereo not drawn) [IIIa-4-6] | 44 | –
CC(=O)Oc1cccc2c1C(=O)OC(C(CC(C)C)NC(=O)C(O)C1OC(=O)CC1NC(=O)c1ccc(C)cc1)C2 (stereo not drawn) [IIIa-4-7] | 33 | –
CC(=O)Oc1cccc2c1C(=O)OC(C(CC(C)C)NC(=O)C(O)C1OC(=O)CC1NC(=O)c1ccc(OCCC(C)C)cc1)C2 (stereo not drawn) [IIIa-4-8] | 33 | –
CC(C)CC(NC(=O)C(O)C1OC(=O)CC1NC(=O)C(Cl)(Cl)Cl)C1Cc2cccc(OC(=O)C(Cl)(Cl)Cl)c2C(=O)O1 (stereo not drawn) [IIIa-4-9] | 33 | –
CCOc1cccc2c1C(=O)OC(C(CC(C)C)NC(=O)C(O)C1OC(=O)CC1NC(C)=O)C2 (stereo not drawn) [IIIa-5-1] | 44 | –
CCOc1cccc2c1C(=O)OC(C(CC(C)C)NC(=O)C(O)C1OC(=O)CC1NC(=O)CC(C)C)C2 (stereo not drawn) [IIIa-5-2] | 44 | –

SMILES | inhibition in vivo at 50 mg/kg (50 mg/kg i.p.) [%] | inhibition in vivo at 50 mg/kg [%]
CCCCOc1cccc2c1C(=O)OC(C(CC(C)C)NC(=O)C(O)C1OC(=O)CC1NC(C)=O)C2 (stereo not drawn) [IIIa-5-3] | 44 | –
CC(C)COc1cccc2c1C(=O)OC(C(CC(C)C)NC(=O)C(O)C1OC(=O)CC1NC(=O)C(C)C)C2 (stereo not drawn) [IIIa-5-4] | 33 | –
COc1cccc2c1C(=O)OC(C(CC(C)C)NC(=O)C(O)C1OC(=O)CC1NC(C)=O)C2 (stereo not drawn) [IIIa-5-5] | 44 | –
CCCCCCCCCCCCCCCCCC(=O)NC1CC(=O)OC1C(O)C(=O)NC(CC(C)C)C1Cc2cccc(OCCCCCCC)c2C(=O)O1 (stereo not drawn) [IIIa-5-6] | 33 | –
COc1cccc2c1C(=O)OC(C(CC(C)C)NC(=O)C(O)C1OC(=O)CC1NC(=O)C(Cl)(Cl)Cl)C2 (stereo not drawn) [IIIa-5-7] | 44 | –
CCCCCCCCC=CCCCCCCCCOc1cccc2c1C(=O)OC(C(CC(C)C)NC(=O)C(O)C1OC(=O)CC1NC(C)=O)C2 (stereo not drawn) [IIIa-5-8] | 33 | –
CCCCCCCCCCCCOc1cccc2c1C(=O)OC(C(CC(C)C)NC(=O)C(O)C1OC(=O)CC1NC(C)=O)C2 (stereo not drawn) [IIIa-5-9] | 33 | –
CC(=O)NC1CC(=O)OC1C(O)C(=O)NC(CC(C)C)C1Cc2cccc(OCC(C)C)c2C(=O)O1 (stereo not drawn) [IIIa-5-10] | 44 | –
CCCCCCCCOc1cccc2c1C(=O)OC(C(CC(C)C)NC(=O)C(O)C1OC(=O)CC1NC(C)=O)C2 (stereo not drawn) [IIIa-5-11] | 44 | –
CCCCCCCCCCCCCCCCCCOc1cccc2c1C(=O)OC(C(CC(C)C)NC(=O)C(O)C1OC(=O)CC1NC(=O)CCCCCC)C2 (stereo not drawn) [IIIa-5-12] | 33 | –
CCOc1cccc2c1C(=O)OC(C(CC(C)C)NC(=O)C(O)C1OC(=O)CC1NC(=O)C(Cl)(Cl)Cl)C2 (stereo not drawn) [IIIa-5-13] | 33 | –
CCOc1cccc2c1C(=O)OC(C(CC(C)C)NC(=O)C(O)C1OC(=O)CC1NC(=O)C13CC4CC(CC(C4)C1)C3)C2 (stereo not drawn) [IIIa-5-15] | 33 | –
CCOc1cccc2c1C(=O)OC(C(CC(C)C)NC(=O)C(O)C1OC(=O)CC1NC(=O)c1ccccc1)C2 (stereo not drawn) [IIIa-5-16] | 33 | –
CCOc1cccc2c1C(=O)OC(C(CC(C)C)NC(=O)C(O)C1OC(=O)CC1NC(=O)c1ccc3ccccc3c1)C2 (stereo not drawn) [IIIa-5-17] | 33 | –
CCOc1cccc2c1C(=O)OC(C(CC(C)C)NC(=O)C(O)C1OC(=O)CC1NC(=O)C1CC1)C2 (stereo not drawn) [IIIa-5-18] | 44 | –
CCOc1cccc2c1C(=O)OC(C(CC(C)C)NC(=O)C(O)C1OC(=O)CC1NC(=O)Cc1ccccc1)C2 (stereo not drawn) [IIIa-5-20] | 44 | –
CCOc1cccc2c1C(=O)OC(C(CC(C)C)NC(=O)C(O)C1OC(=O)CC1NC(=O)Cc1ccc3ccccc3c1C)C2 (stereo not drawn) [IIIa-5-21] | 33 | –
CCOc1cccc2c1C(=O)OC(C(CC(C)C)NC(=O)C(O)C1OC(=O)CC1NC(=O)c1ccco1)C2 (stereo not drawn) [IIIa-5-22] | 44 | –
CCOc1cccc2c1C(=O)OC(C(CC(C)C)NC(=O)C(O)C1OC(=O)CC1NC(=O)C1CCCO1)C2 (stereo not drawn) [IIIa-5-23] | 44 | –
CCOc1cccc2c1C(=O)OC(C(CC(C)C)NC(=O)C(O)C1OC(=O)CC1NC(=O)CC1CCCCO1)C2 (stereo not drawn) [IIIa-5-24] | 44 | –
